# Assay results from patent US20250268876A1, “TREATMENT OF HIDRADENITIS SUPPURATIVA WITH ORISMILAST” (UNION THERAPEUTICS A/S, priority 2021, published 2025).
# Columns and labels:
# [1] = tested on: Hidradenitis suppurativa (HS); test: Phase 2a open-label trial of orismilast in HS patients; type: in vivo, human; conditions: for IHS4: Baseline 65; for VAS pain: Baseline 9; for DLQI: Baseline 25; for HiSQOL: Baseline 54
# Excerpt: The following clinical trial may be performed using the compound of formula (I). Suitably the compound of formula (I) is orally administered to a subject in the form of a modified release composition, for example a modified release formulation described in WO 2020/148271, or as a composition described in Example 1 above. […] This is a phase 2, single-centre, prospective, open-label, single-arm, exploratory clinical trial assessing the efficacy and safety of orismilast in patients with mild, moderate, or severe HS as defined by the IHS4 scores: […] Eligible patients will receive treatment with orismilast tablets twice daily for 16 weeks. The treatment dose will be according to a predefined titration scheme and adapted to the observed tolerance of each patient. Treatment phase: […] Telephone consultation], and Week 2 [Visit 4]) (“BID” means bis in die, i.e. twice per day). Assessment of treatment efficacy will be undertaken using: • 1. Investigator assessments: • a. Counts of abscess, inflammatory nodule, and draining fistula at each on site visit day. • b. International Hidradenitis Suppurativa Severity Score System (IHS4) at each on site visit day. • c. Physician's Global Assessment of disease severity (HS-PGA) at each on site visit day. • 2. Patient assessments • a. Patients' Global Assessment of disease severity at Screening, Baseline, Week 2 (Visit 4), Week 8 (Visit 6), Week 12 (Visit 7), Week 16 (EoT, Visit 8), FU (Visit 9), and EoS (Visit 10). • b. Completion of questionnaires covering skin related quality of life DLQI at Screening, Baseline, Week 2 (Visit 4), Week 8 (Visit 6), Week 12 (Visit 7), Week 16 (EoT), FU, and EoS. • c. Completion of questionnaires covering HS specific quality of life (HiSQOL) at Screening, Baseline, Week 2 (Visit 4), Week 8 (Visit 6), Week 12 (Visit 7), Week 16 (EoT), FU, and EoS. • d. Completion of questionnaire covering skin pain (Patient's Global Assessment of Skin Pain) at each visit day. • e. Completion of questionnaire covering impact on work productivity (WPAI), anxiety and depression (HADS), fatigue (MFI-20), quality of life (EQ-5D), and McGill Pain questionnaire at Baseline, Week 16 (EoT), and EoS. • Counts of abscess, inflammatory nodule, and draining fistula. The lesions are defined in a Pan-European consensus paper ([…] et al., Dermatology. 2020; 236(5):431-438). […] An abscess is defined as a palpable lesion, with liquid content (pus), fluctuant, soft on palpation, diameter >10 mm, usually deep seated; acute, very painful phenomenon. […] A treatment target based on correlation between the changes in lesion counts and PROM (pain and HRQoL). Hidradenitis Suppurativa Clinical Response (HiSCR; a […] reduction from baseline in abscess and inflammatory nodule count and no increase in abscess or draining fistula counts) (Kimball et al., Ann Intern Med. 2012 Dec. 18; 157(12):846-55; Kimball et al., J Eur Acad Dermatol Venereol. 2016 June; 30(6):989-94). Subsequently modified for further differentiation: HiSCR75; a ≥75% reduction from baseline in abscess and inflammatory nodule count and no increase in abscess or draining fistula counts) and HiSCR-90; a ≥90% reduction from baseline in abscess and inflammatory nodule count and no increase in abscess or draining fistula counts) • International Hidradenitis Suppurativa Severity Score System (IHS4): […] The score is based on a count of inflamed lesions. The resulting IHS4 score is arrived at by the number of nodules (multiplied by 1) plus the number of abscesses (multiplied by 2) plus the number of draining tunnels (multiplied by 4). […] The six-point hidradenitis suppurativa Physician Global Assessment (PGA) ranges from clear to very severe (Kimball et al., Ann Intern Med. 2012 Dec. 18; 157(12):846-55). It is used in clinical trials to measure clinical improvement in inflammatory nodules, abscesses, and draining fistulae. The six stages are; • Clear: No inflammatory or non-inflammatory nodules. • Minimal: Only the presence of non-inflammatory nodules. • Mild: […]
# PDE4A4 [2] = biological target: T1, PDE4A4 (Homo sapiens, UniProt P27815); test: biochemical
# PDE4A4 [3] = biological target: T1, PDE4A4; test: IMAP fluorescence polarisation PDE4 subtype assay; type: biochemical
# Protocol: The binding reagent complexes with phosphate groups on nucleotide monophosphate generated from cyclic nucleotides (cAMP/cGMP) through phosphodiesterases. With fluorescence polarisation detection, binding causes a change in the rate of the molecular motion of the phosphate bearing molecule, and results in an increase in the fluorescence polarization value observed for the fluorescent label attached to the substrate. […] All assays were performed in 3% (final) DMSO for the IMAP assay.
# PDE4A1 = PDE4A1 (Homo sapiens, UniProt P27815); test: biochemical
# PDE4A1, sequence (P27815 1-647 isoform P27815-4): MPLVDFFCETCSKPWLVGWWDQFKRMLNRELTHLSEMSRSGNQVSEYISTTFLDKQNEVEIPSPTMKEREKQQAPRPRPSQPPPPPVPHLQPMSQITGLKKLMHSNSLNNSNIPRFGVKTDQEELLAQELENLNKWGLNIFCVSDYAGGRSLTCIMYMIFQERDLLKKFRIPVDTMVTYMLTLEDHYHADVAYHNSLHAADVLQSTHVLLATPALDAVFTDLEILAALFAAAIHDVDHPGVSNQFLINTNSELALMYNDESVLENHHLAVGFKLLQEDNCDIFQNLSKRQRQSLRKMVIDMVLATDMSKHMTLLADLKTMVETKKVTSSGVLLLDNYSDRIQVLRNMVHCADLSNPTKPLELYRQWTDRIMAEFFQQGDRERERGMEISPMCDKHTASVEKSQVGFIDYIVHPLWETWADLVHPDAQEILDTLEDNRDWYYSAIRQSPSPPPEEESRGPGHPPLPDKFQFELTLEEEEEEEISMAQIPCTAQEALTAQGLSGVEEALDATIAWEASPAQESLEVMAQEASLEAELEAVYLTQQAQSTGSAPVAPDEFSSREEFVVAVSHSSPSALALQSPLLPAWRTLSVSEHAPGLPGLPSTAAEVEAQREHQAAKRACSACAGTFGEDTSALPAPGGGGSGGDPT
# T1 sequence (P27815 whole entry): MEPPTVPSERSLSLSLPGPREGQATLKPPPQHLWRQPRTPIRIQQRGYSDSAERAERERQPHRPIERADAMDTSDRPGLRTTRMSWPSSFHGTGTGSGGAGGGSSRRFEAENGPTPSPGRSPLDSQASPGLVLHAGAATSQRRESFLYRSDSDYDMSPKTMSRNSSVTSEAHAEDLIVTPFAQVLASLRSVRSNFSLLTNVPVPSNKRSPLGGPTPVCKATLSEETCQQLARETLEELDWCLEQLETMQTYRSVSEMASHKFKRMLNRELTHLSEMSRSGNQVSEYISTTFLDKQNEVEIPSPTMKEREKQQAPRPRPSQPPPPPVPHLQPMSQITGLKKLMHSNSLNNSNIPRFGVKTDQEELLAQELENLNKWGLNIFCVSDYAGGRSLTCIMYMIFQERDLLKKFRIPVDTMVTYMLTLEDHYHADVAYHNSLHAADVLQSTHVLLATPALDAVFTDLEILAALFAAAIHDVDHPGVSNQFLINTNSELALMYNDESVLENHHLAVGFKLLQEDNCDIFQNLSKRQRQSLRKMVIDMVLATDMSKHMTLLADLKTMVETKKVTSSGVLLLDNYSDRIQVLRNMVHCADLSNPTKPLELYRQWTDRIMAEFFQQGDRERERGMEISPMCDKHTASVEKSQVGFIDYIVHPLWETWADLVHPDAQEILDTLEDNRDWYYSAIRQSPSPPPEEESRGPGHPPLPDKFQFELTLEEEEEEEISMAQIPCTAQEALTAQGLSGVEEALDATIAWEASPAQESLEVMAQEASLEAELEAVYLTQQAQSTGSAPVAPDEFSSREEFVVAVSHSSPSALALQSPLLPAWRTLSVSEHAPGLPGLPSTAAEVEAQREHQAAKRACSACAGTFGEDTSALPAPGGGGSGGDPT
compound,measurement,setting,value
"O=C(Cc1c(Cl)c[n+]([O-])cc1Cl)c1ccc(OC(F)F)c2c1OC1(CCS(=O)(=O)CC1)O2 [Compound (I), 2-(3,5-Dichloro-1-oxido-pyridine-4-yl)-1-(7-difluoro-methoxy-2′,3′,5′,6′-tetrahydro-spiro[1,3-benzodioxole-2,4′-(4H)-thiopyran-1′,1′-dioxide]-4-yl)ethanone]",clinical response (in words),"[1]; first four HS patients enrolled, trial ongoing",initial signs of improvement in HS
same,clinical response (in words),[1]; one patient refractory to conventional HS therapies,"immediate clinical improvement with reduction of tissue edema and pain, as well as increased mobility"
same,IHS4,"[1]; one patient, severe HS, Day 14, 10 to 30 mg twice daily",61
same,VAS pain,"[1]; one patient, Day 14",7
same,DLQI,"[1]; one patient, Day 14",23
same,HiSQOL,"[1]; one patient, Day 14",42
same,VAS pain,"[1]; one patient, Day 57",6
same,DLQI,"[1]; one patient, Day 57",22
same,HiSQOL,"[1]; one patient, Day 57",46
same,IHS4,"[1]; one patient, Day 57, 30 mg twice daily",62
same,thrombocytes,"[1]; one patient, at day 14, baseline 402",365
same,patient's global assessment,"[1]; one patient, day 15",very severe
same,patient's global assessment,"[1]; one patient, day 57",severe
same,leukocytes,"[1]; one patient, day 57, baseline 14.0",11.5
same,C-reactive protein,"[1]; one patient, day 57, baseline 89",84
same,erythrocyte sedimentation rate,"[1]; one patient, day 57, baseline 94",88
same,physician's global assessment of disease activity,"[1]; one patient, during treatment to day 57",very severe
same,IC50,PDE4A4 [2],11 nM
same,inhibition at 0.1 µM,PDE4A4 [3]; compound 10^−7 M,47%
same,inhibition at 0.01 µM,PDE4A4 [3]; compound 10^−8 M,24%
same,inhibition at 0.001 µM,PDE4A4 [3]; compound 10^−9 M,0%
same,inhibition at 0.0001 µM,PDE4A4 [3]; compound 10^−10 M,0%
same,IC50,PDE4A1,16 nM
